Values joined by “and” are separate entries in the source; they are usually repeats but may differ in a detail not shown here. Identical values can stand only once. Like-named read-outs stand apart in the source and are kept apart here.
How the values were obtained:
[1] = test system: tumor cells of lung cancer (bronchial carcinoma) tissue samples; assay: Chemosensitivity test (IC50 determination) by colony formation in tumor digests ex vivo; type: cell-based, human
Procedure: Parts of freshly (under general anesthesia of the patient) taken (here biopsied) lung cancer (bronchial carcinoma) tissue were transported to the laboratory and processed immediately for IC50 determination.
The transport to the laboratory should take place in chilled culture medium. For this purpose in particular HEPES- and NaHCO3-buffered, preferably flavin-free RPMI 1640 culture medium containing 10% fetal bovine serum, 100 IU/mL penicillin G, 100 ug/mL streptomycin, 20 μg/mL Amikacin (as antibiotics) and […] Voriconazole (as an antifungal agent) are suitable.
In the laboratory, this tumor tissue samples were cleaned, weighed, minced and suspended in culture medium.
For this purpose in particular the method according to DE 102012003700 B3 is suitable, wherein about 5.5 mg tumor tissue sample per 1 mL of culture medium are subjected to enzymatic digestion with collagenase, preferably by using Clostridium histolytikum collagenase (Sigma, 230 CDU/mL), in a Petri dish under standard conditions in a gassing incubator (36-37° C., 3.5% CO2 in water vapor saturated air) for 4-5 hours.
Following the collagenase digestion, the digestion product is centrifuged at 50×g, the supernatant is discarded and the pellet is resuspended in 1 mL of fresh culture medium. With this resuspension—hereinafter referred to as “tumor digest”—the chemosensitivity test (IC50 determination) is performed
The thus prepared culture plates were pre-incubated for about 1 hour under standard conditions (i.e.: gassing incubator; 36-37° C.; 3.5% CO2 in water vapor saturated air). Subsequently, 150 μl tumor digest were added to these pre-incubated wells, they were incubated for 72 hours under standard conditions (see above), and then analyzed microscopically.
After the end of incubation, in all tumor digest test preparations the culture medium was removed, and the existing cell colonies were rinsed with phosphate buffered saline (PBS) and drained. Subsequently, the cells were fixed with methanol at minus (−) 25° C. for 5 to 10 minutes and then subjected to Giemsa staining according to Gurr.

[2] = test system: lung adenocarcinoma cell strain A240286S; assay: Verification test of cisplatin concentrations by IC50 determination (cell counting); type: cell-based, human; conditions: 72 hours; 15 evaluable test preparations; read-out: IC50-values of A240286S cells in the verification tests, average
Procedure: The final concentration gradients were pre-incubated for approximately 30 minutes under standard conditions (see above). […] The culture plate was then incubated, in parallel with the culture plate fitted with the tumor digests, for 72 hours under standard conditions. In the batches of the verification test (with the cells of the lung adenocarcinoma cell strain A240286S) the culture medium was decanted after the end of incubation. The present cellular layers were rinsed with PBS, drained and then removed from the culture vessel with Accutase. The cells were isolated by passing them through a blunt cannula no. 20. Using a cell-counting-and-analyzing apparatus (here the Casy I Cell Analyzer from Roche, Basel), the cell density was determined for each test batch and reduced by the inoculum.

[3] = test system: bronchial carcinoma (lung cancer); assay: Therapy outcome of chemotherapy in patients, assessed by computer tomography after two to three cycles; type: in vivo, human; parameters: key: PR=partial response (i.e. the carcinoma has become detectably smaller); NC=“No Change”=zero growth of the carcinoma; Progress=the carcinoma has continued to grow, no therapeutic success; conditions: patient tumor ID 282, NSCLC/St. IV; without platinum derivatives
From the text: The therapy outcome, namely the change or the state of the tumor after two to three cycles of treatment compared to the state before the start of treatment, has been analyzes by computer tomography and classified on the basis of the “standard”—rating scale known and conventional in the art as class I=complete remission (CR), class II=partial remission (PR), class III=zero growth (“no change”, NC) and class IV=Progress (progressive tumor growth). The therapy outcomes achieved are shown in table 1, column 5 and in table 2 in column 3 of each group (1 to 4).

**Q.** Which IC50 ([1]; Group 1 (IC50 < 5 μM), 3 tumor samples, read-out: IC50 mean value) does the source give for `N.N.[Cl][Pt][Cl]` [cisplatin] here?
**A.** 3.64 µM

**Q.** And the IC50 ([1]; Group 2 (IC50 ≧ 5 < 8 μM), 7 tumor samples, read-out: IC50 mean value)?
**A.** 6.73 µM and 6.72 µM

**Q.** What about the IC50 ([1]; Group 3 (IC50 ≧ 8 bis 25.6 μM), 5 tumor samples, read-out: IC50 mean value) of the same molecule?
**A.** 21.1 µM

**Q.** What about the IC50 ([1]; tumor sample ID 220, SCLC/St. IV, 72 hours, colonies of epithelial tumor cells, read-out: IC50) of the same molecule?
**A.** 2.6 µM

**Q.** What about the IC50 ([1]; tumor sample ID 221, NSCLC/St. IV, 72 hours, read-out: IC50) of the same molecule?
**A.** 7.77 µM

**Q.** What about the IC50 ([1]; tumor sample ID 228, NSCLC/St. IV, 72 hours, read-out: IC50) of the same molecule?
**A.** > 26 µM

**Q.** What about the IC50 ([1]; tumor sample ID 233, NSCLC/St. IV, 72 hours, read-out: IC50) of the same molecule?
**A.** > 26 µM

**Q.** And the IC50 ([1]; tumor sample ID 245, NSCLC/St. IV, 72 hours, read-out: IC50)?
**A.** 7.74 µM

**Q.** And the IC50 ([1]; tumor sample ID 255, SCLC/St. IV, 72 hours, read-out: IC50)?
**A.** 4.58 µM

**Q.** What about the IC50 ([1]; tumor sample ID 258, NSCLC/St. IV, 72 hours, read-out: IC50) of the same molecule?
**A.** 16.7 µM

**Q.** And the IC50 ([1]; tumor sample ID 260, NSCLC/St. IIIb, 72 hours, read-out: IC50)?
**A.** 5.61 µM

**Q.** What about the IC50 ([1]; tumor sample ID 272, SCLC/St. IV, 72 hours, read-out: IC50) of the same molecule?
**A.** 21 µM

**Q.** And the IC50 ([1]; tumor sample ID 275, NSCLC/St. IV, 72 hours, read-out: IC50)?
**A.** 5.38 µM

**Q.** What about the IC50 ([1]; tumor sample ID 277, NSCLC/St. IIIa, 72 hours, read-out: IC50) of the same molecule?
**A.** 7.58 µM

**Q.** What about the IC50 ([1]; tumor sample ID 278, NSCLC/St. IV (adenocarcinoma), 72 hours, read-out: IC50) of the same molecule?
**A.** 5.25 µM

**Q.** And the IC50 ([1]; tumor sample ID 279, NSCLC/St. IV (squamous cell carcinoma), 72 hours, read-out: IC50)?
**A.** 3.73 µM

**Q.** And the IC50 ([1]; tumor sample ID 282, NSCLC/St. IV, 72 hours, read-out: IC50)?
**A.** 14.8 µM

**Q.** What about the IC50 ([1]; tumor sample ID 294, NSCLC/St. IV, 72 hours, read-out: IC50) of the same molecule?
**A.** 7.7 µM

**Q.** And the IC50 ([1]; tumor sample ID 297, NSCLC/St. IV, 72 hours, read-out: IC50)?
**A.** 25.6 µM

**Q.** And the IC50 ([1]; tumor sample ID 311, NSCLC/KI. IIIb, 72 hours, read-out: IC50)?
**A.** 22.1 µM

**Q.** What about the IC50 ([1]; tumor sample ID 314, NSCLC/KI. IV, 72 hours, read-out: IC50) of the same molecule?
**A.** 20.5 µM

**Q.** And the IC50 [2]?
**A.** 1.2 µM

**Q.** How did the Therapy outcome [3] turn out when `Nc1ccn([C@@H]2O[C@H](CO)[C@@H](O)C2(F)F)c(=O)n1` [Gemcitabine] was run?
**A.** Progress

— patent US20160103122A1, “METHOD FOR THE CREATION OF A DATABASE FOR INITIAL ASSESSMENT OF THE EFFECTIVENESS OF ACTIVE AGENTS IN TUMOR THERAPY” (FLACOD GMBH, priority 2013, published 2016)
